Data reported in patent publication US20170304228A1, “NEW INDICATION OF CINACALCET HCL PHARMACEUTICAL COMPOSITION FOR TREATING CANCER” (LAUNX BIOMEDICAL CO., LTD., priority 2014, published 2017).
Several values for one entry are separate records, joined by “and”; a condition that tells them apart may be missing. Equal values may be shown once. Where a name gives a salt, the structure may show the parent alone. Read-outs that look alike come from different tables or passages of the source.

Experiments:
[1] = tested on: bladder cancer cells; assay: Summary of cell viability, bladder cancer cells; type: cell-based; details: 72 hours, read-out: Inhibitory effect
Protocol: (§1) The cell numbers were counted and reseed as 2×10^6 in culture plate/flask. Then, the culture medium were added to a volume of 10 ml, and the cells were cultured for 2-3 days. Then, the cells were suspended for loading into 96-well plates. The number of cells was 3000 and the volume of the culture medium was 100 μl each well.
(§2) Removing the original culture medium from 96-well plate. Then add 100 μl of commercially drug at a concentration of 10 μM per well. After 72 hours, add the diluted WST-1 reagent to the well with 100 μl/well, and the diluted WST-1 reagent was acquired from the dilution of 9:1 medium and WST-1 stock reagent. Finally, the total volume of each well was 200 μl/well. Culture the 96-well plate at 37° C. for 30 to 90 minutes. Detecting and calculate the survival rate of each cancer cells with an ELISA reader at OD450 nm. The lower viability of cancer cells represents better inhibition effect via the Cinacalcet HCl drug. Otherwise, the higher viability of cancer cells represents worse inhibition effect via the Cinacalcet HCl drug.
(§3) Cinacalcet HCl is having different inhibitory effect on different tumor cell type even in the same cancer. […] (FIG. 1)

[2] = tested on: gastric cancer cells; assay: Summary of cell viability, gastric cancer cells; type: cell-based; details: 72 hours, read-out: Inhibitory effect
Protocol: as §1, §2, §3

[3] = tested on: various cancer cells; assay: Inhibitory effect on various cancer cells; type: cell-based; details: FIG. 1
Protocol: as §2, §3

[4] = tested on: MDA-MB-231; assay: Cell viability analysis (WST-1), MDA-MB-231; type: cell-based; details: Homo sapiens, read-out: survival rate (viability) of cells
Protocol: as §1, §2
This inhibition test of Cinacalcet HCl on endocrine-related cancer cells were using prostate cancer cell lines PC-3 and LNCap (Table 6), breast cancer cell lines MCF7 and MDA-MB-231 (Table 7), and ovarian cancer cell lines NIH-OVCAR-3 and TOV-21G (Table 8). The inhibitory tests of Cinacalcet HCl were performed 4 times for each cell lines and then the average value of the inhibitory tests was calculated.

[5] = tested on: ovarian cancer cells; assay: Summary of cell viability, ovarian cancer cells; type: cell-based; details: 72 hours, read-out: Inhibitory effect
Protocol: as §1, §2, §3

[6] = Animal model test of gastric cancer, body weight and health status; type: in vivo, mice; details: for weight: single mice A, B, C, hydrochloride
Protocol: In this invention, the female mice were(BALB/cAnN.Cg-Foxnl™/CrlNarl) and purchased from National Laboratory Animal Center (Taiwan). The weight of the mice were 21±1 g. These mice were subcutaneously injected with gastric cancer cells (AGS) and then put these mice into different cages at random. The drug test experiment was divided into three groups, include “control group”, “low dose group (100 mg/kg/day)”, “high dose group (200 mg/kg/day)”. These mice were then injected test drug intraperitoneally once daily […]. The tumor sizes and body weight were measured twice a week. The tumor sizes were measured and calculated by formula: (L×W^2)/2. L represents the tumor longest length. W represents the tumor shortest diameter.

[7] = tested on: prostate cancer cells; assay: Summary of cell viability, prostate cancer cells; type: cell-based; details: 72 hours, read-out: Inhibitory effect
Protocol: as §1, §2, §3

[8] = tested on: breast cancer cells; assay: Summary of cell viability, breast cancer cells; type: cell-based; details: 72 hours, read-out: Inhibitory effect
Protocol: as §1, §2, §3

[9] = tested on: A549; assay: Cell viability analysis (WST-1), A549; type: cell-based; details: Homo sapiens, read-out: survival rate (viability) of cells
Protocol: as §1, §2
This inhibition test of Cinacalcet HCl on pleural-related cancer cells were using two lung cancer cell lines A549 and H1650. The inhibitory tests of Cinacalcet HCl were performed 4 times for each cell lines and then the average value of the inhibitory tests was calculated.

[10] = tested on: hepatic cancer cells; assay: Summary of cell viability, hepatic cancer cells; type: cell-based; details: 72 hours, read-out: Inhibitory effect
Protocol: as §1, §2, §3

[11] = tested on: BxPC-3; assay: Cell viability analysis (WST-1), BxPC-3; type: cell-based; details: Homo sapiens, read-out: survival rate (viability) of cells
Protocol: as §1, §2
(§4) This inhibition test of Cinacalcet HCl on gastrointestinal tract-related cancer cells were using gastric cancer cell lines AGS and MKN-45 (Table 9), hepatic cancer cell lines HepG2 and Hep3B (Table 10), colorectal cancer cell lines HCT116-wt and LoVo (Table 11), pancreatic cancer cell line AsPC-1 and BxPC-3(Table 12), tongue cancer cell line SAS (Table 13). The inhibitory tests of Cinacalcet HCl were performed 4 times for each cell lines and then the average value of the inhibitory tests was calculated.

[12] = tested on: MKN-45; assay: Cell viability analysis (WST-1), MKN-45; type: cell-based; details: Homo sapiens, read-out: survival rate (viability) of cells
Protocol: as §1, §2, §4

[13] = tested on: TSGH; assay: Cell viability analysis (WST-1), TSGH; type: cell-based; details: read-out: survival rate (viability) of cells
Protocol: as §1, §2
This inhibition test of Cinacalcet HCl on abdominal-related cancer cells were using bladder cancer cell line TSGH and T24 (Table 3), cervical cancer cell lines HeLa and C-33A (Table 4), renal cancer cell line 786-O (Table 5). The inhibitory tests of Cinacalcet HCl were performed 4 times for each cell lines and then the average value of the inhibitory tests was calculated.

[14] = tested on: lung cancer cells; assay: Summary of cell viability, lung cancer cells; type: cell-based; details: 72 hours, read-out: Inhibitory effect
Protocol: as §1, §2, §3

[15] = tested on: SAS; assay: Cell viability analysis (WST-1), SAS; type: cell-based
Protocol: as §1, §2, §4

Compound: C[C@@H](NCCCc1cccc(C(F)(F)F)c1)c1cccc2ccccc12 [Cinacalcet HCl, Cinacalcet hydrochloride]
- viability at 10 µM [1]: 90.4%
- viability at 10 µM [2]: 123%
- inhibitory effect on various cancer cells [3]: significant inhibitory effect and specificity
- viability at 10 µM ([4]; MDA-MB-231, 10 μM, 72 hours, test 0612-10 min): 92.3%
- viability at 10 µM ([4]; MDA-MB-231, 10 μM, 72 hours, test 0614-10 min): 84.9%
- viability at 10 µM ([4]; MDA-MB-231, 10 μM, 72 hours, test 0616-10 min): 60.8%
- viability at 10 µM ([4]; MDA-MB-231, 10 μM, 72 hours, test 0619-10 min): 92.8%
- viability at 10 µM ([4]; MDA-MB-231, 72 h, 10 μM, average of tests): 82.7%
- viability at 10 µM [5]: 58.7%
- weight ([6]; Low dose (100 mg/kg/day) intraperitoneally, First measurement, 100 mg/kg/day): 20 g and 16 g and 21 g
- weight ([6]; Low dose (100 mg/kg/day) intraperitoneally, Fourth measurement, 100 mg/kg/day): 22 g and 23 g
- weight ([6]; Low dose (100 mg/kg/day) intraperitoneally, Second measurement, 100 mg/kg/day): 21 g and 22 g and 19 g
- weight ([6]; Low dose (100 mg/kg/day) intraperitoneally, Third measurement, 100 mg/kg/day): 23.5 g and 21 g
- health status / death of tested mice during the treatment ([6]; both high and low doses): without death
- weight of mice during the experiment ([6]; both low dose and high dose): did not show a significant decrease
- weight ([6]; high dose (200 mg/kg/day) intraperitoneally, Fourth measurement, 200 mg/kg/day): 23 g and 20 g
- weight ([6]; high dose (200 mg/kg/day) intraperitoneally, Second measurement, 200 mg/kg/day): 18.5 g and 21 g and 19 g
- weight ([6]; high dose (200 mg/kg/day) intraperitoneally, Third measurement, 200 mg/kg/day): 19 g and 22 g and 18.5 g
- viability at 10 µM [7]: 81.7%
- viability at 10 µM [8]: 108%
- viability at 10 µM ([9]; A549, 10 μM, 72 hours, test 0524-10 min): 87.7%
- viability at 10 µM ([9]; A549, 10 μM, 72 hours, test 0526-10 min): 103%
- viability at 10 µM ([9]; A549, 10 μM, 72 hours, test 0529-10 min): 75.5%
- viability at 10 µM ([9]; A549, 10 μM, 72 hours, test 0531-10 min): 92.6%
- viability at 10 µM ([9]; A549, 72 h, 10 μM, Average of tests): 89.6%
- viability at 10 µM [10]: 102%
- viability at 10 µM ([11]; BXPC-3, 10 μM, 72 hours, test 3-4-30 min): 76.2%
- viability at 10 µM ([11]; BXPC-3, 10 μM, 72 hours, test 3-7-3-30 min): 64.6%
- viability at 10 µM ([11]; BXPC-3, 10 μM, 72 hours, test 3-7-4-30 min): 78.8%
- viability at 10 µM ([11]; BXPC-3, 10 μM, 72 hours, test 3-7-7-30 min): 100%
- viability at 10 µM ([11]; BXPC-3, 72 h, 10 μM, Average of tests): 79.9%
- viability at 10 µM ([12]; MKN-45, 10 μM, 72 hours, test 0510-10 min): 82.1%
- viability at 10 µM ([12]; MKN-45, 10 μM, 72 hours, test 0512-10 min): 102%
- viability at 10 µM ([12]; MKN-45, 10 μM, 72 hours, test 0515-10 min): 104%
- viability at 10 µM ([12]; MKN-45, 10 μM, 72 hours, test 0517-10 min): 69.1%
- viability at 10 µM ([12]; MKN-45, 72 h, 10 μM, average of tests): 89.1%
- viability at 10 µM ([13]; 72 h, average of tests): 59.8%
- viability at 10 µM ([13]; 72 hours, test 0510-10 min): 57.3%
- viability at 10 µM ([13]; 72 hours, test 0512-10 min): 73.2%
- viability at 10 µM ([13]; 72 hours, test 0515-10 min): 74.7%
- viability at 10 µM ([13]; 72 hours, test 0517-10 min): 33.9%
- viability at 10 µM [14]: 83.1%
- viability at 10 µM ([15]; 72 h, average of tests, read-out: survival rate (viability) of cells): 82.4%
- viability at 10 µM ([15]; 72 h, summary, tongue cancer, read-out: Inhibitory effect): 77.4%
- viability at 10 µM ([15]; 72 hours, test 6-26-10 min, read-out: survival rate (viability) of cells): 45.7%
- viability at 10 µM ([15]; 72 hours, test 6-28-10 min, read-out: survival rate (viability) of cells): 88.9%
- viability at 10 µM ([15]; 72 hours, test 6-30-10 min, read-out: survival rate (viability) of cells): 96.2%
- viability at 10 µM ([15]; 72 hours, test 7-3-10 min, read-out: survival rate (viability) of cells): 98.9%
